According to publication PMC10722540, “Red Wine Inspired Chemistry: Hemisynthesis of Procyanidin Analogs and Determination of Their Protein Precipitation Capacity, Octanol–Water Partition, and Stability in Phosphate-Buffered Saline” (Journal of Agricultural and Food Chemistry, 2023):
Where two headings read alike, the source gives them in different places.

Assays:
[1] = Stability in phosphate buffered saline; assay type: physicochemical; conditions: for half-life at 150 μM: phosphate buffered saline, read-out: half-life (t1/2); for half-life at 150 μM / half-life (t1/2): first-order kinetics, UV 280 nm, 150 μM; for starting material remaining (in words): after 26 h incubation in PBS; for stability in phosphate buffered saline (in words): first time point, approx. 15 min after adding PBS
Experimental: The stabilities of the compounds were measured in PBS, which was prepared from commercially available tablets that were dissolved in ultrapure water. The phosphate concentration was 0.01 M, the pH was 7.4, and the potassium and sodium chloride concentrations were 0.0027 and 0.137 M, respectively. […] The compounds were dissolved in 2 mL of the PBS solution in Eppendorf tubes, vortexed for approximately 15 min, and filtered through a 0.2 μm PTFE filter to a 2 mL UPLC vial. The solutions were analyzed with the UPLC-DAD-HESI-Orbitrap-MS instrument using the longer phenyl column (section 2.4), and repeated injections were done every 47.5 min for approximately 12 h. […] The UV chromatograms at 280 nm were integrated using the QuanBrowser module in Xcalibur software (version 4.1.31.9), and the main degradation products were identified in QualBrowser by their high-resolution mass spectra and UV spectra. With each compound, the measured areas were transformed to proportional areas by dividing all areas with the initial area in the first injection of the time series, and the data was further loge transformed and fitted with first-order linear regression curves. The regression curves were supplemented with 95% confidence intervals to visualize the uncertainty in the fitted curves. The half-lives were calculated from the slope (k) parameters of the linear regression model using the following equation: [drawing 1]

[2] = Octanol–water partition, shake-flask method; assay type: physicochemical; conditions: 200 μM, n-octanol/water, 2 h mixing, SE in parentheses; for logP at 2 h: read-out: log P (log10KOW)
Experimental: The shake-flask method was done using 2 mL Eppendorf tubes and three replicates. […] After mixing, aliquots of 500 μL were transferred to new Eppendorf tubes, and 500 μL of n-octanol was added that had been saturated with water. The solvent systems were mixed in a vortex mixer for 2 h, and then both the water and the n-octanol layers as well as the initial water solution were analyzed by UPLC–DAD using the shorter phenyl column (section 2.4). The chromatograms were integrated using TargetLynx software (version 4.2), and the octanol–water partition coefficient, log P, was calculated as the log10 of the ratio of area in n-octanol phase to the area in water phase. Recovery % was calculated by summing the areas in both phases and dividing the summation with the area measured from the initial water phase.

[3] = molecular target: T1, bovine serum albumin (BSA) (Bos taurus, UniProt P02769); assay: Protein precipitation capacity (PPC), turbidimetric well-plate reader assay with BSA, log-normal dose–response model; assay type: biochemical; conditions: SE in parentheses; for ED90 (mM) / EC50: BSA 0.1 mM; for EC50: concentration giving 50% of maximal absorbance (420 nm haze), read-out: ED50 (the source's name); for slope: slope parameter of log-normal dose–response model
T1 construct: purchased Sigma-Aldrich (MO, USA)
T1 sequence (P02769 25-607): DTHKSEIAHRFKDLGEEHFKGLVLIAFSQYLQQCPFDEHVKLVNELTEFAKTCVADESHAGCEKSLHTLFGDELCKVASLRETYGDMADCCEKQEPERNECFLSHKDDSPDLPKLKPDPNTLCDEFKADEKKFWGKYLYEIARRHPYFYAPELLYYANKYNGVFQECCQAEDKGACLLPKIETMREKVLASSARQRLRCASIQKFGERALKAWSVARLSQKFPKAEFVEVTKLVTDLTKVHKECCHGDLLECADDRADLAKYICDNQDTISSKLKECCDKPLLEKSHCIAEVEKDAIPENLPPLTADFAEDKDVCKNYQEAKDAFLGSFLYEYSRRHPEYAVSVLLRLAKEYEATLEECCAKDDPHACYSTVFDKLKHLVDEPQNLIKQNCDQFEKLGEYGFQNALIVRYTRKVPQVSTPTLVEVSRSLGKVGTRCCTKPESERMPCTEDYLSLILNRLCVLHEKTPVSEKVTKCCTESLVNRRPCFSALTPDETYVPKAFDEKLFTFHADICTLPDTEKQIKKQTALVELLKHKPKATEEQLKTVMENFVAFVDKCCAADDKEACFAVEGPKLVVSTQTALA
Experimental: (§1) PPC was measured by using the turbidimetric well-plate reader assay of Engström et al. (2019), with few modifications to the volumes of the reactants and to the number of replicates, for instance. The analyzes of the supernatants were done following Engström et al. (2022).[21] Briefly, 75 μL of BSA solution and 75 μL of the solutions of compounds 2–14 were pipetted to well plates, and the intensity of the forming haze was measured periodically at 420 nm using a well-plate reader. The PPC of the PC analogue 1 was not measured because it was not soluble in suitable solvents. The reactions were monitored for 30 min, and the highest intensities were recorded. A single background measurement was done at each concentration with all the components in the wells but the BSA. The reactions were done in triplicates (and in duplicates with PC C1), and the concentrations of the compounds 2–14 in the reaction mixtures were 0.25 0.65, 1.05, 1.45, 1.85, and 2.25 mM. The concentration of the BSA was kept constant at 0.1 mM. Therefore, the tested molar ratios to BSA were 2.5:1, 6.5:1, 10.5:1, 14.5:1, 18.5:1, and 22.5:1. After the 30 min, the supernatants and precipitates of the replicates were combined in a 1.5 mL Eppendorf tube and separated by centrifuging. The supernatants were then analyzed by UPLC–DAD using the shorter phenyl column (section 2.4) to quantify the leftover compounds 2–14 and BSA. Leftover BSA was quantified using a separately prepared linear calibration curve (1–125 μM), and the compounds 2–14 were quantified by analyzing the background solutions from the well-plate reader assay and constructing a calibration curve from these analyzes. BSA was quantified at 280 nm and compounds 2–14 at 280–320 nm. The wavelength of maximal UV absorption for compounds 2–14 could not be utilized in quantification because the diode array detector was saturated at the optimal wavelengths due to the high concentrations used in the well-plate reader assay. Therefore, off-optimal wavelengths were chosen for quantification separately for each compound 2–14 to reduce intensities and to obtain linear fits for calibration curves.
All statistical analyzed were performed with R (version 4.2.2) in the integrated development environment Rstudio (version 2022.12.0.353).[23],[24] The PPC data was fitted with a dose–response model using the package drc.[25] Various models, e.g., logit and log-normal models, were compared using the mselect function, and the best fitting model was chosen based on the Akaike’s information criterion and residual error when comparing all models, and log-likelihood was used when comparing nested models. All compounds were assumed to have the same upper and lower asymptotes; the former was estimated from the experimental data, and the latter was fixed at zero.

[4] = molecular target: T1, bovine serum albumin (BSA); assay: UPLC–DAD analysis of supernatants from the PPC experiment (proportion of precipitated BSA); assay type: biochemical
Experimental: as §1

[5] = Octanol–water partition, shake-flask method; assay type: physicochemical; conditions: for logP / KOW: tentative values, experiment shorter than two hours because the compounds degraded; for logP: read-out: log P (log10KOW)
[6] = pH 7.4, PBS pH 7.4, 0.01 M phosphate

Oc1ccc([C@H]2Oc3c(Cc4c(O)cc(O)c5c4O[C@H](c4ccc(O)c(O)c4)[C@H](O)C5)c(O)cc(O)c3C[C@H]2O)cc1O [Compound 2, Epicatechin–methylene–epicatechin]
half-life at 150 μM [1, 6]: 2.05 h | KOW [2]: 1.46 (0.01) | logP at 2 h [2]: 0.16 | ED90 (mM) [3]: 3.45 (0.10) mM | EC50 [3]: 2180 µM | slope [3]: 2.80 (0.13)

Oc1cc(O)c2c(c1)O[C@H](c1ccc(O)c(O)c1)[C@H](O)[C@H]2c1c(O)cc(O)c2c1O[C@H](c1ccc(O)c(O)c1)[C@H](O)C2 [Compound 12, PC B2, reference compound]
half-life at 150 μM [1, 6]: 11.6 h | KOW [2]: 0.13 (0.00) | logP at 2 h [2]: -0.87 | activity based on the proportions of precipitated BSA (in words) [4]: practically inactive

Oc1ccc(C(c2c(O)cc(O)c3c2O[C@H](c2ccc(O)c(O)c2)[C@@H](O)C3)c2c(O)cc(O)c3c2O[C@H](c2ccc(O)c(O)c2)[C@@H](O)C3)cc1O [Compound 7, Catechin–catecholmethine–catechin]
half-life (t1/2) ([1]; PBS pH 7.4, 0.01 M phosphate): 0.917 to 1.4 h | half-life at 150 μM [1, 6]: 0.917 h | KOW [2]: 0.79 (0.00) | logP at 2 h [2]: -0.1 | ED90 (mM) [3]: 2.53 (0.07) mM | EC50 [3]: 1290 µM | slope [3]: 1.90 (0.06)

Oc1cc(O)c2c(c1)O[C@H](c1ccc(O)c(O)c1)[C@H](O)[C@H]2c1c(O)cc(O)c2c1O[C@H](c1ccc(O)c(O)c1)[C@H](O)[C@H]2c1c(O)cc(O)c2c1O[C@H](c1ccc(O)c(O)c1)[C@H](O)C2 [Compound 13, PC C1, reference compound]
half-life at 150 μM [1, 6]: 30.9 h | KOW [2]: 0.07 (0.00) | logP at 2 h [2]: -1.17 | ED90 (mM) [3]: 1.57 (0.06) mM | EC50 [3]: 770 µM | slope [3]: 1.79 (0.08) | proportion of BSA precipitated ([4]; highest tested concentration of 2.25 mM (molar ratio to BSA 23:1)): almost all

Oc1cc(O)c2c(c1)O[C@H](c1ccc(O)c(O)c1)[C@@H](O)C2 [Compound 15, catechin, reference compound]
starting material remaining (in words) [1]: majority of the starting materials remained | half-life at 150 μM ([1]; PBS pH 7.4, 0.01 M phosphate): 22.3 h | log P (log10KOW) ([5]; 200 μM, n-octanol/water, 2 h mixing, SE in parentheses): 0.42 (0.00) | KOW [2]: 2.61 (0.03)

Oc1ccc([C@H]2Oc3c(c(O)cc(O)c3C(c3ccco3)c3c(O)cc(O)c4c3O[C@H](c3ccc(O)c(O)c3)[C@@H](O)C4)C[C@@H]2O)cc1O [Compound 5, Catechin–furanmethine–catechin]
half-life at 150 μM [1, 6]: 8.85 h | KOW [2]: 5.28 (0.02) | logP at 2 h [2]: 0.72 | ED90 (mM) [3]: 2.58 (0.06) mM | EC50 [3]: 1390 µM | slope [3]: 2.08 (0.07)

Oc1ccc([C@H]2Oc3c(c(O)cc(O)c3C(c3cc(O)c(O)c(O)c3)c3c(O)cc(O)c4c3O[C@H](c3ccc(O)c(O)c3)[C@H](O)C4)C[C@H]2O)cc1O [Compound 10]
stability in phosphate buffered saline (in words) [1]: completely degraded already at the first time point | half-life at 150 μM [1, 6]: < 0.25 h | logP ([5]; n-octanol/water): -1.18 | KOW [5]: 0.07 (0.00) | ED90 (mM) [3]: 2.41 (0.05) mM | EC50 [3]: 1440 µM | slope [3]: 2.48 (0.08)

Oc1ccc([C@H]2Oc3c(c(O)cc(O)c3C(c3ccco3)c3c(O)cc(O)c4c3O[C@H](c3ccc(O)c(O)c3)[C@H](O)C4)C[C@H]2O)cc1O [Compound 6, Epicatechin–furanmethine–epicatechin]
half-life at 150 μM [1, 6]: 5.82 h | KOW [2]: 2.08 (0.00) | logP at 2 h [2]: 0.32 | ED90 (mM) [3]: 3.32 (0.09) mM | EC50 [3]: 1830 µM | slope [3]: 2.15 (0.08)

O=C(O)C(c1c(O)cc(O)c2c1O[C@H](c1ccc(O)c(O)c1)[C@@H](O)C2)c1c(O)cc(O)c2c1O[C@H](c1ccc(O)c(O)c1)[C@@H](O)C2 [Compound 3]
half-life at 150 μM [1, 6]: 6.27 h | KOW [2]: 0.04 (0.00) | logP at 2 h [2]: -1.37 | ED90 (mM) [3]: 3.34 (0.09) mM | EC50 [3]: 2030 µM | slope [3]: 2.57 (0.10)

Oc1cc(O)c2c(c1)O[C@H](c1ccc(O)c(O)c1)[C@@H](O)[C@@H]2c1c(O)cc(O)c2c1O[C@H](c1ccc(O)c(O)c1)[C@@H](O)C2 [Compound 11, PC B3, reference compound]
half-life at 150 μM [1, 6]: 8.98 h | KOW [2]: 0.16 (0.00) | logP at 2 h [2]: -0.79 | activity based on the proportions of precipitated BSA (in words) [4]: practically inactive

Oc1ccc([C@H]2Oc3c(c(O)cc(O)c3C(c3cc(O)c(O)c(O)c3)c3c(O)cc(O)c4c3O[C@H](c3ccc(O)c(O)c3)[C@@H](O)C4)C[C@@H]2O)cc1O [Compound 9]
stability in phosphate buffered saline (in words) [1]: completely degraded already at the first time point | half-life at 150 μM [1, 6]: < 0.25 h | logP ([5]; n-octanol/water): -0.85 | KOW [5]: 0.14 (0.01) | ED90 (mM) [3]: 2.61 (0.06) mM | EC50 [3]: 1400 µM | slope [3]: 2.04 (0.06)

O=C(O)C(c1c(O)cc(O)c2c1O[C@H](c1ccc(O)c(O)c1)[C@H](O)C2)c1c(O)cc(O)c2c1O[C@H](c1ccc(O)c(O)c1)[C@H](O)C2 [Compound 4, Epicatechin–carboxymethine–epicatechin]
half-life at 150 μM [1, 6]: 7 h | KOW [2]: 0.02 (0.00) | logP at 2 h [2]: -1.78 | ED90 (mM) [3]: 3.30 (0.08) mM | EC50 [3]: 2030 µM | slope [3]: 2.64 (0.11)

Oc1ccc(C(c2c(O)cc(O)c3c2O[C@H](c2ccc(O)c(O)c2)[C@H](O)C3)c2c(O)cc(O)c3c2O[C@H](c2ccc(O)c(O)c2)[C@H](O)C3)cc1O [Compound 8, Epicatechin–catecholmethine–epicatechin]
half-life (t1/2) ([1]; PBS pH 7.4, 0.01 M phosphate): 0.917 to 1.4 h | half-life at 150 μM [1, 6]: 1.4 h | KOW [2]: 0.34 (0.00) | logP at 2 h [2]: -0.47 | ED90 (mM) [3]: 2.61 (0.06) mM | EC50 [3]: 1500 µM | slope [3]: 2.30 (0.08)

Oc1ccc([C@H]2Oc3c(Cc4c(O)cc(O)c5c4O[C@H](c4ccc(O)c(O)c4)[C@@H](O)C5)c(O)cc(O)c3C[C@@H]2O)cc1O [Compound 1]
half-life at 150 μM [1, 6]: 3.45 h | KOW [2]: 5.00 (0.05) | logP at 2 h [2]: 0.7

Oc1cc(O)c2c(c1)O[C@H](c1ccc(O)c(O)c1)[C@H](O)C2 [Compound 16, epicatechin, reference compound]
starting material remaining (in words) [1]: majority of the starting materials remained | half-life at 150 μM ([1]; PBS pH 7.4, 0.01 M phosphate): 15 h
